From US8541590B2, “Proteasome inhibitors and processes for their preparation, purification and use” (Cephalon, Inc., priority 2009, dated 2013)
Marks after values point to notes of the source that are not given here. Each block holds one compound with its values, some of them ahead of it.

Assays:
[1] = Storage stability of boronic ester of Formula X, bulk solid state drug substance (Example 9); type: physicochemical
Protocol: Bulk solid state drug substance was put in polyethylene (PE) double bag in high-density polyethylene (HDPE) containers and the containers were stored under three conditions: (a) 4° C., (b) 25° C./60% relative humidity (RH), and (c) 40° C./75% RH.
6-(2S,3R)—N-[(1R)-1-(1,3,6,2-dioxazaborocan-2-yl)-3-methylbutyl}-3-hydroxy-2-{(6-phenylpyridin-2-yl)formamido]butanamide converts to [(1R)-1-[[(2S,3R)-3-Hydroxy-2-[[(6-phenylpyridin-2-yl)carbonyl]amino]-1-oxobutyl]amino]-3-methylbutyl]boronic acid (i.e., Compound 1) as soon as it is in the presence of an aqueous phase. Therefore, HPLC analysis of purity was of the [(1R)-1-[[(2S,3R)-3-Hydroxy-2-[[(6-phenylpyridin-2-yl)carbonyl]amino]-1-oxobutyl]amino]-3-methylbutyl]boronic acid hydrolysis product. Stability was tested at time zero (T0), and after storage for one month (1M), six months (6M) and (except for the 40° C./75% RH conditions) one year (12M).

[2] = Occupational exposure limit (OEL)
[3] = Comparative storage stability of Compound 1, Batches A, B, C (Example 9A); type: physicochemical
Protocol: Three (3) separate batches of Compound 1 were tested for storage stability. The batches are identified as Batch A, Batch B, and Batch C below. Bulk solid state drug substance was put in polyethylene (PE) double bag in high-density polyethylene (HDPE) containers and the containers were stored under the indicated conditions.

[4] = Comparative bioavailability of bortezomib and boronic ester of Formula XI in rat, Example 10 (i.v.; p.o. in saline); type: in vivo, male Sprague Dawley rats; settings: male, Sprague Dawley, iv, bortezomib in plasma, 0.8 mg/kg, mean ± SEM
Protocol: Three adult male Sprague Dawley rats were used in each treatment group. The rats were fasted overnight prior to oral dose administration. Intravenous administration was via the lateral tail vein and oral doses were administered by gavage. The compound was administered iv in a vehicle of 3% DMSO:30% Solutol:67% phosphate buffered saline. Oral dosing was in phosphate buffered saline.
For blood collection, each rat (unanesthetized) was placed in a clear Plexiglas® restraining tube, and blood samples (approximately 0.25 mL) were drawn from a lateral tail vein into heparinized collection tubes at predetermined sampling times (0.083, 0.25, 0.5, 1, 2, 4, and 6 hours post dose). No pre-dose samples were obtained. The exception to this procedure was the last sampling time in which the animals were sacrificed by decapitation and trunk blood was obtained rather than blood via a tail vein. The blood samples were placed on wet ice until centrifuged to separate plasma. The plasma fraction was transferred into clean dry tubes, frozen on dry ice and stored at approximately −20° C. pending analysis.
Plasma was prepared for high performance liquid chromatography (HPLC)/mass spectrometric analysis according to standard protocol following protein precipitation with acetonitrile containing an internal standard. The plasma samples were then analyzed for both bortezomib and alprenolol (internal standard) via HPLC coupled with tandem mass spectrometry.
The plasma concentration data for all rats were entered into Excel spreadsheets in preparation for pharmacokinetic analysis. Pharmacokinetic parameters for bortezomib were estimated for each rat by non-compartmental analysis (Gibaldi M, Perrier D. Pharmacokinetics, 2nd edition, Marcel Dekker, New York, Chapter 11, 1982) of the plasma concentration versus time data using WinNonlin software (Professional Version 4.1, Pharsight Corporation, Palo Alto, Calif., 1997).
The maximum plasma concentration (Cmax) was the highest observed plasma concentration after an oral dose; tmax was the corresponding time when Cmax was observed. The terminal rate constant for elimination from plasma (β) was estimated by linear regression of the terminal portion of the semi-logarithmic plasma concentration versus time curve. The apparent terminal half-life (t1/2) was calculated as 0.693 divided by β. The area under the plasma concentration versus time curve from time zero to the time of the last measurable concentration (AUC0-t) after a single dose was determined by the linear trapezoidal rule. The area from zero to infinity (AUC0-∞) was calculated as the sum of AUC0-t and the area extrapolated from the last measurable concentration to infinity (Clast/β). Concentrations pre dose were all assumed to be zero for the purpose of calculation of the AUC. Oral bioavailability was determined by dividing the dose normalized oral AUC0-∞ by the AUC0-∞ from iv dosing and multiplying by 100 to express the ratio as a percent.

[5] = Batch B, 5° C./ambient RH, 1 Month
[6] = Batch B, 5° C./ambient RH, 3 Month
[7] = Batch B, 5° C./ambient RH, 6 Month
[8] = Batch C, 5° C./ambient RH, 1 Month
[9] = Batch C, 5° C./ambient RH, 3 Month
[10] = Batch C, 5° C./ambient RH, 6 Month
[11] = Batch C, 5° C./ambient RH, 12 Month

- Appearance ([1]; 4° C., 1 M): White to off-
- Appearance ([1]; 4° C., 6 M): White to off-
- Appearance ([1]; 4° C., 12 M): White to off-
- Chemical purity (%) ([1]; 4° C./ambient RH, 1 M): 99.8%
- Impurity by HPLC (%) RRT = 0.49 ([1]; 4° C./ambient RH, 1 M): 0.06%
- Impurity by HPLC (%) RRT = 1.18 ([1]; 4° C./ambient RH, 1 M): 0.17%
- Chemical purity (%) ([1]; 4° C./ambient RH, 6 M): 99.9%
- Chemical purity (%) ([1]; 4° C./ambient RH, 12 M): 99.9%
- Impurity by HPLC (%) RRT = 1.18 ([1]; 4° C./ambient RH, 12 M): 0.07%
- Appearance ([1]; 25° C./60% RH, 1 M): White to off-
- Chemical purity (%) ([1]; 25° C./60% RH, 1 M): 99.6%
- Impurity by HPLC (%) RRT = 0.49 ([1]; 25° C./60% RH, 1 M): 0.09%
- Impurity by HPLC (%) RRT = 1.18 ([1]; 25° C./60% RH, 1 M): 0.32%
- Appearance ([1]; 25° C./60% RH, 6 M): White to off-
- Chemical purity (%) ([1]; 25° C./60% RH, 6 M): 99.8%
- Impurity by HPLC (%) RRT = 0.49 ([1]; 25° C./60% RH, 6 M): 0.08%
- Impurity by HPLC (%) RRT = 1.18 ([1]; 25° C./60% RH, 6 M): 0.06%
- Appearance ([1]; 25° C./60% RH, 12 M): White to off-
- Chemical purity (%) ([1]; 25° C./60% RH, 12 M): 99.9%
- Impurity by HPLC (%) RRT = 0.49 ([1]; 25° C./60% RH, 12 M): 0.07%
- Impurity by HPLC (%) RRT = 1.18 ([1]; 25° C./60% RH, 12 M): 0.08%
- Appearance ([1]; 40° C./75% RH, 1 M): White to off-
- Chemical purity (%) ([1]; 40° C./75% RH, 1 M): 99.7%
- Impurity by HPLC (%) RRT = 0.49 ([1]; 40° C./75% RH, 1 M): 0.10%
- Impurity by HPLC (%) RRT = 1.18 ([1]; 40° C./75% RH, 1 M): 0.18%
- Appearance ([1]; 40° C./75% RH, 6 M): White to off-
- Chemical purity (%) ([1]; 40° C./75% RH, 6 M): 99.8%
- Impurity by HPLC (%) RRT = 0.49 ([1]; 40° C./75% RH, 6 M): 0.10%
- Impurity by HPLC (%) RRT = 1.18 ([1]; 40° C./75% RH, 6 M): 0.11%
- Appearance ([1]; T0): White to off-
- Impurity by HPLC (%) RRT = 1.18 ([1]; T0): 0.50%
- Chemical purity (%) ([1]; T0, HPLC of Compound 1 hydrolysis product): 99.5%
Compound: 6-(2S,3R)—N-[(1R)-1-(1,3,6,2-dioxazaborocan-2-yl)-3-methylbutyl}-3-hydroxy-2-{(6-phenylpyridin-2-yl)formamido]butanamide [boronic ester of Formula X]

- occupational exposure limit (OEL) [2]: 0.3 μg/m^3
- HPLC Purity (%) ([3]; Batch A, 4° C./ambient RH, 3 M): 94.5%
- Appearance ([3]; Batch A, 4° C./ambient RH, 3 Months): White to off-
- HPLC Purity (%) ([3]; Batch A, 4° C./ambient RH, 6 M): 94.1%
- Appearance ([3]; Batch A, 4° C./ambient RH, 6 Months): White to off-
- HPLC Purity (%) ([3]; Batch A, 25° C./60% RH, 3 M): 94.4%
- Appearance ([3]; Batch A, 25° C./60% RH, 3 Months): White to off-
- HPLC Purity (%) ([3]; Batch A, 25° C./60% RH, 6 M): 94.1%
- Appearance ([3]; Batch A, 25° C./60% RH, 6 Months): White to off-
- HPLC Purity (%) ([3]; Batch A, 40° C./75% RH, 3 M): 93.2%
- Appearance ([3]; Batch A, 40° C./75% RH, 3 Months): White to off-
- HPLC Purity (%) ([3]; Batch A, 40° C./75% RH, 6 M): 88.7%
- Appearance ([3]; Batch A, 40° C./75% RH, 6 Months): White to off-
- Appearance ([3]; Batch A, T0): White to off-
- HPLC Purity (%) ([3]; Batch A, T0 (estimated)): 95.3* %
- Appearance [3, 5]: White powder
- Assay by HPLC (anhydrous) (%) [3, 5]: 97.1%
- Assay by HPLC (as-is) (%) [3, 5]: 90.6%
- Total Impurities (%) [3, 5]: 3.0%
- Water Content (%) [3, 5]: 6.0%
- Appearance [3, 6]: White
- Assay by HPLC (anhydrous) (%) [3, 6]: 94.0%
- Assay by HPLC (as-is) (%) [3, 6]: 87.5%
- Total Impurities (%) [3, 6]: 5.9%
- Water Content (%) [3, 6]: 6.1%
- Appearance [3, 7]: White powder
- Assay by HPLC (anhydrous) (%) [3, 7]: 93.5%
- Assay by HPLC (as-is) (%) [3, 7]: 85.1%
- Total Impurities (%) [3, 7]: 7.3%
- Water Content (%) [3, 7]: 8.2%
- Appearance ([3]; Batch B, 5° C./ambient RH, T0): White
- Assay by HPLC (anhydrous) (%) ([3]; Batch B, 5° C./ambient RH, T0): 101.7%
- Assay by HPLC (as-is) (%) ([3]; Batch B, 5° C./ambient RH, T0): 94.4%
- Total Impurities (%) ([3]; Batch B, 5° C./ambient RH, T0): 0.6%
- Water Content (%) ([3]; Batch B, 5° C./ambient RH, T0): 6.5%
- Appearance [3, 8]: White to yellow
- Assay by HPLC (anhydrous) (%) [3, 8]: 97.0%
- Assay by HPLC (as-is) (%) [3, 8]: 91.4%
- HPLC Purity (%) [3, 8]: 97.2%
- Water Content (%) [3, 8]: 4.59%
- Appearance [3, 9]: White to yellow
- Assay by HPLC (anhydrous) (%) [3, 9]: 102.4%
- Assay by HPLC (as-is) (%) [3, 9]: 94.6%
- HPLC Purity (%) [3, 9]: 96.2%
- Water Content (%) [3, 9]: 6.48%
- Appearance [3, 10]: Off-white
- Assay by HPLC (anhydrous) (%) [3, 10]: 99.9%
- Assay by HPLC (as-is) (%) [3, 10]: 91.0%
- HPLC Purity (%) [3, 10]: 96.3%
- Water Content (%) [3, 10]: 7.74%
- Appearance [3, 11]: Off-white
- Assay by HPLC (anhydrous) (%) [3, 11]: 95.9%
- Assay by HPLC (as-is) (%) [3, 11]: 87.0%
- HPLC Purity (%) [3, 11]: 96.2%
- Water Content (%) [3, 11]: 8.16%
- Appearance ([3]; Batch C, 5° C./ambient RH, T0): Yellowish
- Assay by HPLC (anhydrous) (%) ([3]; Batch C, 5° C./ambient RH, T0): 98.1%
- Assay by HPLC (as-is) (%) ([3]; Batch C, 5° C./ambient RH, T0): 92.9%
- HPLC Purity (%) ([3]; Batch C, 5° C./ambient RH, T0): 98.2%
- Water Content (%) ([3]; Batch C, 5° C./ambient RH, T0): 4.16%
- increase of total impurities ([3]; within six months, refrigerated conditions): more than 10 fold
Compound: CC(C)C[C@H](NC(=O)[C@@H](NC(=O)c1cccc(-c2ccccc2)n1)[C@@H](C)O)B(O)O [Compound 1, [(1R)-1-[[(2S,3R)-3-hydroxy-2-[6-phenyl-pyridine-2-carbonyl)amino]-1-oxobutyl]amino]-3-methylbutylboronic acid]

- AUC(0-inf) ([4]; n = 3): 472 ± 127 ng·h/mL
- AUC(0-t) ([4]; n = 3): 459 ± 127 ng·h/mL
- Vd ([4]; n = 3): 2.4 ± 0.8 L/kg
- clearance ([4]; n = 3): 34 ± 11 mL/min/kg
- half-life ([4]; n = 3, read-out: t1/2, h (converted)): 48 ± 6 min
Compound: CC(C)C[C@H](NC(=O)[C@H](Cc1ccccc1)NC(=O)c1cnccn1)B(O)O [bortezomib, [(1R)-3-methyl-1-({(2S)-3-phenyl-2-[(pyrazin-2-ylcarbonyl)amino]propanoyl}amino)butyl]boronic acid]
